{"source": "ChEMBL document CHEMBL6096732", "about": "(J Med Chem, 2025)", "key": {"Histone deacetylase 1": {"biological_target": "Histone deacetylase 1 (Homo sapiens, UniProt Q13547)", "sequence (Q13547 whole entry)": "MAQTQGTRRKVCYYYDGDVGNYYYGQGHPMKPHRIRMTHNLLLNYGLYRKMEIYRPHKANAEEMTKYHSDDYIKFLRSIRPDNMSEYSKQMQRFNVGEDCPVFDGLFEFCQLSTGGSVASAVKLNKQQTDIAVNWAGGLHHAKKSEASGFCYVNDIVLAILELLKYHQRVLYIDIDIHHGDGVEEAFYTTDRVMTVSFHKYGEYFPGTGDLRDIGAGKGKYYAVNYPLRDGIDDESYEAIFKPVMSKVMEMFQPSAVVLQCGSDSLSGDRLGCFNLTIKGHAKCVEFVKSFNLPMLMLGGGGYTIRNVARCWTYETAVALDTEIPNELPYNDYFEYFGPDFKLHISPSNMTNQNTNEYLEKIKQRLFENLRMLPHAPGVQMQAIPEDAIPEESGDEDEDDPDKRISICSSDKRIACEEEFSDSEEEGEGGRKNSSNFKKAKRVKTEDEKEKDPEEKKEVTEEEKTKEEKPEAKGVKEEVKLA", "assay": "Inhibition of recombinant HDAC1 (unknown origin) using Boc-Lys(acetyl)-AMC as substrate preincubated for 1 hr followed by substrate addition and measured after 2 hrs by fluorescence based micro plate reader analysis"}, "[1]": {"assay": "AUMC (0 to t) in male Sprague-Dawley rat at 20 mg/kg, po measured after 12 hrs by LC-MS/MS analysis", "format": "ADME, organism-based", "details": "in vivo"}, "4T1 [2]": {"tested_on": "4T1", "assay": "cells", "format": "functional, cell-based", "details": "Mus musculus, 4T1, 72 h"}, "B16-F10 [3]": {"tested_on": "B16-F10", "assay": "Anti-invasive activity in mouse B16-F10 cells assessed as reduction in invasive capacity at 5 to 20 uM incubated for 24 to 48 hrs by crystal violet staining based microscopic analysis", "format": "functional, cell-based", "details": "dose 5-20 µM, time 24-48 hrs"}, "B16-F10 [4]": {"tested_on": "B16-F10", "assay": "Induction of apoptosis in mouse B16-F10 cells assessed as increase in apoptotic cells at 5 uM incubated for 48 hrs by Annexin V-FITC/PI staining based flow cytometric analysis relative to control", "format": "functional"}, "B16-F10 [5]": {"tested_on": "B16-F10", "assay": "Induction of apoptosis in mouse B16-F10 cells assessed as increase in apoptotic cells at 20 uM incubated for 48 hrs by Annexin V-FITC/PI staining based flow cytometric analysis relative to control", "format": "functional"}, "4T1 [6]": {"tested_on": "4T1", "assay": "Effect on acetylated H3K56 expression level in mouse 4T1 cells at 5 to 20 uM incubated for 24 hrs by Western blot analysis", "format": "functional, cell-based", "details": "dose 5-20 µM"}, "[7]": {"assay": "Retention time of compound by HPLC analysis", "format": "physicochemical"}, "[8]": {"assay": "AUC (0 to 12 hrs) in male Sprague-Dawley rat at 2 mg/kg, iv measured after 12 hrs by LC-MS/MS analysis", "format": "ADME, organism-based", "details": "in vivo"}, "[9]": {"assay": "VRT (0 to infinity) in male Sprague-Dawley rat at 2 mg/kg, iv measured after 12 hrs by LC-MS/MS analysis", "format": "ADME, organism-based", "details": "in vivo"}, "[10]": {"assay": "Half-life in male Sprague-Dawley rat at 2 mg/kg, iv measured after 12 hrs by LC-MS/MS analysis", "format": "ADME, organism-based", "details": "in vivo"}, "[11]": {"assay": "Apparent volume of distribution in male Sprague-Dawley rat at 2 mg/kg, iv measured after 12 hrs by LC-MS/MS analysis", "format": "ADME, organism-based", "details": "in vivo, read-out: Vz"}, "[12]": {"assay": "AUC (0 to 12 hrs) in male Sprague-Dawley rat at 20 mg/kg, po measured after 12 hrs by LC-MS/MS analysis", "format": "ADME, organism-based", "details": "in vivo"}, "[13]": {"assay": "AUMC (0 to infinity) in male Sprague-Dawley rat at 20 mg/kg, po measured after 12 hrs by LC-MS/MS analysis", "format": "ADME, organism-based", "details": "in vivo"}, "[14]": {"assay": "Apparent volume of distribution in male Sprague-Dawley rat at 20 mg/kg, po measured after 12 hrs by LC-MS/MS analysis", "format": "ADME, organism-based", "details": "in vivo"}, "Mus musculus": {"tested_on": "Mus musculus", "assay": "In vivo induction of PD-L1 degradation in male C57BL/6 mouse model implanted with mouse B16-F10 cells assessed as decrease in PD-L1 protein expression in tumor at 50 mg/kg, po co-administered with NP-19 as once daily dosage via gavage for 14 days by DAPI staining based immunofluorescence analysis", "format": "functional, organism-based", "details": "time 14.0 day"}, "4T1 [15]": {"tested_on": "4T1", "assay": "Antitumor activity against mouse 4T1 cells implanted in female BALB/c mouse model assessed as tumor growth inhibition administrated orally as once daily dose via gavage for 14 days relative to control", "format": "functional", "details": "route po; time 14 day"}}, "note": "The source made the active and inactive calls. No cut-off for these calls is given here.", "data": [{"smiles": "CCCNNC(=O)c1ccc(Cn2c3ccccc3c3c(-c4ccccn4)nc4ccccc4c32)cc1", "values": [{"measurement": "IC50", "setting": "Histone deacetylase 1", "result": 6.8, "unit": "µM"}, {"measurement": "AUMCt", "setting": "[1]", "result": 34704.993, "unit": "hr.hr.ug/L"}, {"measurement": "IC50", "setting": "4T1 [2]", "result": 8.26, "unit": "µM"}, {"measurement": "Activity", "setting": "B16-F10 [3]", "result": "Active"}, {"measurement": "Activity", "setting": "B16-F10 [4]", "result": 25, "unit": "%"}, {"measurement": "Activity", "setting": "B16-F10 [5]", "result": 60.7, "unit": "%"}, {"measurement": "Activity", "setting": "4T1 [6]", "result": "inactive"}, {"measurement": "Retention_time", "setting": "[7]", "result": 10.16, "unit": "min"}, {"measurement": "AUC(0-t) at 12 h", "setting": "[8]", "result": 857, "unit": "ng·h/mL"}, {"measurement": "VRT", "setting": "[9]", "result": 0.664, "unit": "hr2"}, {"measurement": "half-life", "setting": "[10]", "result": 37.8, "unit": "min"}, {"measurement": "Vd", "setting": "[11]", "result": 2.17, "unit": "L/kg"}, {"measurement": "AUC(0-t) at 12 h", "setting": "[12]", "result": 7830, "unit": "ng·h/mL"}, {"measurement": "AUMC", "setting": "[13]", "result": 39983.874, "unit": "hr.hr.ug/L"}, {"measurement": "Vz", "setting": "[14]", "result": 7.322, "unit": "L/kg"}, {"measurement": "Activity", "setting": "Mus musculus", "result": "Active"}, {"measurement": "TGI", "setting": "4T1 [15]", "result": 41, "unit": "%"}]}]}
